Measurements as given in publication PMC5789148, “Embelin Restores Carbapenem Efficacy against NDM-1-Positive Pathogens” (Frontiers in Microbiology, 2018).

Experiments:
Assay type in all cases: biochemical
[1] = biological target: T1, NDM-1 (New Delhi metallo-β-lactamase-1) (Klebsiella pneumoniae, UniProt C7C422); experiment: meropenem hydrolysis inhibition with purified NDM-1, […] nm (IC50 […])
T1 construct: gene blaNDM-1

[2] = biological target: IMP-1 (Serratia marcescens, UniProt P52699); experiment: meropenem hydrolysis inhibition assay
Sequence of IMP-1 (P52699 19-246 limits assumed): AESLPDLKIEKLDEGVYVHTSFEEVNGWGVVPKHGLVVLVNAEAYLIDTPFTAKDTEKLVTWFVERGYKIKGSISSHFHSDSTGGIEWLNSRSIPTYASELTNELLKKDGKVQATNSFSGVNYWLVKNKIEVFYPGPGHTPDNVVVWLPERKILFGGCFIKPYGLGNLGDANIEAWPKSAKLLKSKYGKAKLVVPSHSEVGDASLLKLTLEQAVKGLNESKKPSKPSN

[3] = biological target: VIM-1 (Pseudomonas aeruginosa, UniProt A0A0F7KYQ8); experiment: meropenem hydrolysis inhibition assay
[4] = biological target: T1, NDM-1 (New Delhi metallo-β-lactamase-1); experiment: single-concentration ([…]) meropenem hydrolysis screen with purified NDM-1; settings: read-out: % inhibition at 20 μM

T1 sequence (C7C422 29-270 limits assumed): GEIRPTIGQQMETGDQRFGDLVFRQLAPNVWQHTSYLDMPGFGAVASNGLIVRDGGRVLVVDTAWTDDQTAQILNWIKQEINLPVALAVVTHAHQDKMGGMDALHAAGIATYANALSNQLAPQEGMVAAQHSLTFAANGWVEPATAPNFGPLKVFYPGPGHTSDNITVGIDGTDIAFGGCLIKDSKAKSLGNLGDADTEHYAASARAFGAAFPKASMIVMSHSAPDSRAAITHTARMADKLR

SMILES: CCCCCCCCCCCC1=C(O)C(=O)C=C(O)C1=O [embelin]
- Ki [1]: 0.19 ± 0.02 µM
- IC50 [2]: ~100 µM
- IC50 [3]: ~200 µM

SMILES: COc1cc(/C=C/C(=O)CC(=O)/C=C/c2ccc(O)c(OC)c2)ccc1O [curcumine]
- inhibition at 20 µM [4]: > 20%

SMILES: Oc1ccc(/C=C/c2cc(O)cc(O)c2)cc1 [resveratrol]
- inhibition at 20 µM [4]: > 20%
